Laboratory results from the supplement of paper PMC10307832.

Columns and labels:
Test in all cases: relative viability (nuclei count vs DMSO), 5 days (fraction); higher = more cells survive
[1] = compound: COc1ccc(-c2ccc3c(N4CCOC[C@@H]4C)nc(N4CCOC[C@@H]4C)nc3n2)cc1CO [AZD8055] + C[C@@H](Oc1cc(-c2cnn(C3CCNCC3)c2)cnc1N)c1c(Cl)ccc(F)c1Cl [Crizotinib] (partner 1 µM)
Summary of the method: (§1)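 Lung cancer cell lines in 1536-well plates got either a single drug or a fixed anchor-drug dose together with five library-drug doses (not always all listed) in √10 steps, by pin tool, on the day after seeding. Nuclei were counted after 5 days, and relative viability is the treated-to-vehicle ratio of nuclei counts. Values are medians of duplicate plates.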

[2] = compound: COc1ccc(-c2ccc3c(N4CCOC[C@@H]4C)nc(N4CCOC[C@@H]4C)nc3n2)cc1CO [AZD8055] + COc1cccc2cc(-c3nc([C@H]4CC[C@H](C(=O)O)CC4)n4ncnc(N)c34)[nH]c12 [OSI-027] (partner 0.5 µM)
Summary of the method: as §1

[3] = compound: COc1ccc(-c2ccc3c(N4CCOC[C@@H]4C)nc(N4CCOC[C@@H]4C)nc3n2)cc1CO [AZD8055] + CC(=O)Nc1cccc(-n2c(=O)n(C3CC3)c(=O)c3c(Nc4ccc(I)cc4F)n(C)c(=O)c(C)c32)c1 [Trametinib] (partner 0.02 µM)
Summary of the method: as §1

[4] = compound: COc1ccc(-c2ccc3c(N4CCOC[C@@H]4C)nc(N4CCOC[C@@H]4C)nc3n2)cc1CO [AZD8055] + N=C(N)NC(=N)NCCc1ccccc1 [Phenformin] (partner 250 µM)
Summary of the method: as §1

NCI-H2405
relative viability ([1]; first compound 0.01 µM): 0.804
relative viability ([1]; first compound 0.03162 µM): 0.815
relative viability ([1]; first compound 0.1 µM): 0.681
relative viability ([1]; first compound 0.3162 µM): 0.516
relative viability ([1]; first compound 1 µM): 0.311
relative viability ([2]; first compound 0.01 µM): 0.664
relative viability ([2]; first compound 0.03162 µM): 0.697
relative viability ([2]; first compound 0.1 µM): 0.56
relative viability ([2]; first compound 0.3162 µM): 0.43
relative viability ([2]; first compound 1 µM): 0.385
relative viability ([3]; first compound 0.01 µM): 0.555
relative viability ([3]; first compound 0.03162 µM): 0.494
relative viability ([3]; first compound 0.1 µM): 0.43
relative viability ([3]; first compound 0.3162 µM): 0.282
relative viability ([3]; first compound 1 µM): 0.27
relative viability ([4]; first compound 0.01 µM): 0.399
relative viability ([4]; first compound 0.03162 µM): 0.368
relative viability ([4]; first compound 0.1 µM): 0.341
relative viability ([4]; first compound 0.3162 µM): 0.302
relative viability ([4]; first compound 1 µM): 0.275

NCI-H3122
relative viability ([1]; first compound 0.01 µM): 0.248
relative viability ([1]; first compound 0.03162 µM): 0.238
relative viability ([1]; first compound 0.1 µM): 0.183
relative viability ([1]; first compound 0.3162 µM): 0.174
relative viability ([1]; first compound 1 µM): 0.171
relative viability ([2]; first compound 0.01 µM): 1.09
relative viability ([2]; first compound 0.03162 µM): 0.846
relative viability ([2]; first compound 0.1 µM): 0.854
relative viability ([2]; first compound 0.3162 µM): 0.323
relative viability ([2]; first compound 1 µM): 0.236
relative viability ([3]; first compound 0.01 µM): 0.227
relative viability ([3]; first compound 0.03162 µM): 0.195
relative viability ([3]; first compound 0.1 µM): 0.175
relative viability ([3]; first compound 0.3162 µM): 0.119
relative viability ([3]; first compound 1 µM): 0.0905
relative viability ([4]; first compound 0.01 µM): 0.444
relative viability ([4]; first compound 0.03162 µM): 0.425
relative viability ([4]; first compound 0.1 µM): 0.428
relative viability ([4]; first compound 0.3162 µM): 0.233
relative viability ([4]; first compound 1 µM): 0.204

PC-3 [JPC-3]
relative viability ([1]; first compound 0.01 µM): 1.06
relative viability ([1]; first compound 0.03162 µM): 1.05
relative viability ([1]; first compound 0.1 µM): 1.01
relative viability ([1]; first compound 0.3162 µM): 0.712
relative viability ([1]; first compound 1 µM): 0.53
relative viability ([2]; first compound 0.01 µM): 0.84
relative viability ([2]; first compound 0.03162 µM): 0.742
relative viability ([2]; first compound 0.1 µM): 0.756
relative viability ([2]; first compound 0.3162 µM): 0.768
relative viability ([2]; first compound 1 µM): 0.566
relative viability ([3]; first compound 0.01 µM): 0.749
relative viability ([3]; first compound 0.03162 µM): 0.757
relative viability ([3]; first compound 0.1 µM): 0.565
relative viability ([3]; first compound 0.3162 µM): 0.462
relative viability ([3]; first compound 1 µM): 0.445
relative viability ([4]; first compound 0.01 µM): 0.464
relative viability ([4]; first compound 0.03162 µM): 0.479
relative viability ([4]; first compound 0.1 µM): 0.47
relative viability ([4]; first compound 0.3162 µM): 0.464
relative viability ([4]; first compound 1 µM): 0.456

PC-14
relative viability ([1]; first compound 0.01 µM): 1.06
relative viability ([1]; first compound 0.03162 µM): 1.02
relative viability ([1]; first compound 0.1 µM): 0.771
relative viability ([1]; first compound 0.3162 µM): 0.448
relative viability ([1]; first compound 1 µM): 0.21
relative viability ([2]; first compound 0.01 µM): 1.2
relative viability ([2]; first compound 0.03162 µM): 0.849
relative viability ([2]; first compound 0.1 µM): 0.497
relative viability ([2]; first compound 0.3162 µM): 0.283
relative viability ([2]; first compound 1 µM): 0.109
relative viability ([3]; first compound 0.01 µM): 0.743
relative viability ([3]; first compound 0.03162 µM): 0.715
relative viability ([3]; first compound 0.1 µM): 0.179
relative viability ([3]; first compound 0.3162 µM): 0.108
relative viability ([3]; first compound 1 µM): 0.138
relative viability ([4]; first compound 0.01 µM): 0.857
relative viability ([4]; first compound 0.03162 µM): 0.595
relative viability ([4]; first compound 0.1 µM): 0.284
relative viability ([4]; first compound 0.3162 µM): 0.216
relative viability ([4]; first compound 1 µM): 0.167

RERF-LC-KJ
relative viability ([1]; first compound 0.01 µM): 0.863
relative viability ([1]; first compound 0.03162 µM): 0.974
relative viability ([1]; first compound 0.1 µM): 0.756
relative viability ([1]; first compound 0.3162 µM): 0.578
relative viability ([1]; first compound 1 µM): 0.452
relative viability ([2]; first compound 0.01 µM): 0.587
relative viability ([2]; first compound 0.03162 µM): 0.671
relative viability ([2]; first compound 0.1 µM): 0.522
relative viability ([2]; first compound 0.3162 µM): 0.387
relative viability ([2]; first compound 1 µM): 0.362
relative viability ([3]; first compound 0.01 µM): 0.871
relative viability ([3]; first compound 0.03162 µM): 0.816
relative viability ([3]; first compound 0.1 µM): 0.649
relative viability ([3]; first compound 0.3162 µM): 0.378
relative viability ([3]; first compound 1 µM): 0.38
relative viability ([4]; first compound 0.01 µM): 0.374
relative viability ([4]; first compound 0.03162 µM): 0.378
relative viability ([4]; first compound 0.1 µM): 0.383
relative viability ([4]; first compound 0.3162 µM): 0.303
relative viability ([4]; first compound 1 µM): 0.303

SK-LU-1
relative viability ([1]; first compound 0.01 µM): 0.743
relative viability ([1]; first compound 0.03162 µM): 0.767
relative viability ([1]; first compound 0.1 µM): 0.335
relative viability ([1]; first compound 0.3162 µM): 0.475
relative viability ([1]; first compound 1 µM): 0.376
relative viability ([2]; first compound 0.01 µM): 0.354
relative viability ([2]; first compound 0.03162 µM): 0.372
relative viability ([2]; first compound 0.1 µM): 0.337
relative viability ([2]; first compound 0.3162 µM): 0.289
relative viability ([2]; first compound 1 µM): 0.242
relative viability ([3]; first compound 0.01 µM): 0.579
relative viability ([3]; first compound 0.03162 µM): 0.447
relative viability ([3]; first compound 0.1 µM): 0.358
relative viability ([3]; first compound 0.3162 µM): 0.284
relative viability ([3]; first compound 1 µM): 0.3
relative viability ([4]; first compound 0.01 µM): 0.526
relative viability ([4]; first compound 0.03162 µM): 0.436
relative viability ([4]; first compound 0.1 µM): 0.288
relative viability ([4]; first compound 0.3162 µM): 0.247
relative viability ([4]; first compound 1 µM): 0.226

SK-MES-1
relative viability ([1]; first compound 0.01 µM): 0.94
relative viability ([1]; first compound 0.03162 µM): 0.944
relative viability ([1]; first compound 0.1 µM): 0.781
relative viability ([1]; first compound 0.3162 µM): 0.494
relative viability ([1]; first compound 1 µM): 0.318
relative viability ([2]; first compound 0.01 µM): 0.653
relative viability ([2]; first compound 0.03162 µM): 0.629
relative viability ([2]; first compound 0.1 µM): 0.557
relative viability ([2]; first compound 0.3162 µM): 0.338
relative viability ([2]; first compound 1 µM): 0.22
relative viability ([3]; first compound 0.01 µM): 0.462
relative viability ([3]; first compound 0.03162 µM): 0.543
relative viability ([3]; first compound 0.1 µM): 0.354
relative viability ([3]; first compound 0.3162 µM): 0.313
relative viability ([3]; first compound 1 µM): 0.303
relative viability ([4]; first compound 0.01 µM): 0.658
relative viability ([4]; first compound 0.03162 µM): 0.645
relative viability ([4]; first compound 0.1 µM): 0.608
relative viability ([4]; first compound 0.3162 µM): 0.311
relative viability ([4]; first compound 1 µM): 0.216

SW 1573
relative viability ([1]; first compound 0.01 µM): 0.777
relative viability ([1]; first compound 0.03162 µM): 0.812
relative viability ([1]; first compound 0.1 µM): 0.449
relative viability ([1]; first compound 0.3162 µM): 0.317
relative viability ([1]; first compound 1 µM): 0.21
relative viability ([2]; first compound 0.01 µM): 0.696
relative viability ([2]; first compound 0.03162 µM): 0.528
relative viability ([2]; first compound 0.1 µM): 0.47
relative viability ([2]; first compound 0.3162 µM): 0.221
relative viability ([2]; first compound 1 µM): 0.18
relative viability ([3]; first compound 0.01 µM): 0.559
relative viability ([3]; first compound 0.03162 µM): 0.518
relative viability ([3]; first compound 0.1 µM): 0.379
relative viability ([3]; first compound 0.3162 µM): 0.193
relative viability ([3]; first compound 1 µM): 0.15
relative viability ([4]; first compound 0.01 µM): 0.324
relative viability ([4]; first compound 0.03162 µM): 0.218
relative viability ([4]; first compound 0.1 µM): 0.193
relative viability ([4]; first compound 0.3162 µM): 0.163
relative viability ([4]; first compound 1 µM): 0.14

UMC-11
relative viability ([1]; first compound 0.01 µM): 0.543
relative viability ([1]; first compound 0.03162 µM): 0.535
relative viability ([1]; first compound 0.1 µM): 0.321
relative viability ([1]; first compound 0.3162 µM): 0.29
relative viability ([1]; first compound 1 µM): 0.189
relative viability ([2]; first compound 0.01 µM): 0.494
relative viability ([2]; first compound 0.03162 µM): 0.452
relative viability ([2]; first compound 0.1 µM): 0.367
relative viability ([2]; first compound 0.3162 µM): 0.302
relative viability ([2]; first compound 1 µM): 0.284
relative viability ([3]; first compound 0.01 µM): 0.77
relative viability ([3]; first compound 0.03162 µM): 0.489
relative viability ([3]; first compound 0.1 µM): 0.453
relative viability ([3]; first compound 0.3162 µM): 0.319
relative viability ([3]; first compound 1 µM): 0.253
relative viability ([4]; first compound 0.01 µM): 0.353
relative viability ([4]; first compound 0.03162 µM): 0.311
relative viability ([4]; first compound 0.1 µM): 0.311
relative viability ([4]; first compound 0.3162 µM): 0.264
relative viability ([4]; first compound 1 µM): 0.213
